# Reference: PubChem BioAssay (NCI)
#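 All cell lines were grown in 96-well plates and treated with compound for 48 hours. TGI denotes the concentration required for complete inhibition of growth.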
# What was measured:
# Assay in all cases: DTP human tumour cell line panel, 48 h
# 786-0 renal = test system: 786-0 renal
# A498 renal = test system: A498 renal
# A549 NSCLC = test system: A549 NSCLC
# ACHN renal = test system: ACHN renal
# BT-549 breast = test system: BT-549 breast
# CAKI-1 renal = test system: CAKI-1 renal
# CCRF-CEM leukemia = test system: CCRF-CEM leukemia
# COLO 205 colon = test system: COLO 205 colon
# DU-145 prostate = test system: DU-145 prostate
# EKVX NSCLC = test system: EKVX NSCLC
# HCC-2998 colon = test system: HCC-2998 colon
# HCT-116 colon = test system: HCT-116 colon
# HCT-15 colon = test system: HCT-15 colon
# HL-60(TB) leukemia = test system: HL-60(TB) leukemia
# HOP-62 NSCLC = test system: HOP-62 NSCLC
# HOP-92 NSCLC = test system: HOP-92 NSCLC
# HT29 colon = test system: HT29 colon
# IGROV1 ovarian = test system: IGROV1 ovarian
# K-562 leukemia = test system: K-562 leukemia
# KM12 colon = test system: KM12 colon
# LOX IMVI melanoma = test system: LOX IMVI melanoma
# M14 melanoma = test system: M14 melanoma
# MCF7 breast = test system: MCF7 breast
# MDA-MB-231 breast = test system: MDA-MB-231 breast
# MDA-MB-435 = test system: MDA-MB-435
# MDA-N = test system: MDA-N
# MOLT-4 leukemia = test system: MOLT-4 leukemia
# NCI-H226 lung = test system: NCI-H226 lung
# NCI-H23 lung = test system: NCI-H23 lung
# NCI-H522 lung = test system: NCI-H522 lung
# NCI/ADR-RES ovarian = test system: NCI/ADR-RES ovarian
# OVCAR-3 ovarian = test system: OVCAR-3 ovarian
# OVCAR-4 ovarian = test system: OVCAR-4 ovarian
# OVCAR-5 ovarian = test system: OVCAR-5 ovarian
# OVCAR-8 ovarian = test system: OVCAR-8 ovarian
# PC-3 prostate = test system: PC-3 prostate
# RPMI-8226 leukemia = test system: RPMI-8226 leukemia
# SF-268 CNS = test system: SF-268 CNS
# SF-295 CNS = test system: SF-295 CNS
# SF-539 CNS = test system: SF-539 CNS
# SK-MEL-2 melanoma = test system: SK-MEL-2 melanoma
# SK-MEL-28 melanoma = test system: SK-MEL-28 melanoma
# SK-MEL-5 melanoma = test system: SK-MEL-5 melanoma
# SK-OV-3 ovarian = test system: SK-OV-3 ovarian
# SN12C renal = test system: SN12C renal
# SNB-19 CNS = test system: SNB-19 CNS
# SR leukemia = test system: SR leukemia
# SW-620 colon = test system: SW-620 colon
# T-47D breast = test system: T-47D breast
# TK-10 renal = test system: TK-10 renal
# U251 CNS = test system: U251 CNS
# UACC-257 melanoma = test system: UACC-257 melanoma
# UACC-62 melanoma = test system: UACC-62 melanoma
# UO-31 renal = test system: UO-31 renal
# HS 578T breast = test system: HS 578T breast
# MALME-3M melanoma = test system: MALME-3M melanoma
# NCI-H460 lung = test system: NCI-H460 lung
# RXF 393 renal = test system: RXF 393 renal
# SNB-75 CNS = test system: SNB-75 CNS
smiles,measurement,setting,value
CC(C)(C)OC(=O)NCC(=O)N1CCN(C(=O)CNC(=O)OC(C)(C)C)CC1,TGI,786-0 renal,> 100 µM
same,TGI,A498 renal,> 100 µM
same,TGI,A549 NSCLC,> 100 µM
same,TGI,ACHN renal,> 100 µM
same,TGI,BT-549 breast,> 100 µM
same,TGI,CAKI-1 renal,> 100 µM
same,TGI,CCRF-CEM leukemia,> 100 µM
same,TGI,COLO 205 colon,> 100 µM
same,TGI,DU-145 prostate,> 100 µM
same,TGI,EKVX NSCLC,> 100 µM
same,TGI,HCC-2998 colon,> 100 µM
same,TGI,HCT-116 colon,> 100 µM
same,TGI,HCT-15 colon,> 100 µM
same,TGI,HL-60(TB) leukemia,> 100 µM
same,TGI,HOP-62 NSCLC,> 100 µM
same,TGI,HOP-92 NSCLC,> 100 µM
same,TGI,HT29 colon,> 100 µM
same,TGI,IGROV1 ovarian,> 100 µM
same,TGI,K-562 leukemia,> 100 µM
same,TGI,KM12 colon,> 100 µM
same,TGI,LOX IMVI melanoma,> 100 µM
same,TGI,M14 melanoma,> 100 µM
same,TGI,MCF7 breast,> 100 µM
same,TGI,MDA-MB-231 breast,> 100 µM
same,TGI,MDA-MB-435,> 100 µM
same,TGI,MDA-N,> 100 µM
same,TGI,MOLT-4 leukemia,> 100 µM
same,TGI,NCI-H226 lung,> 100 µM
same,TGI,NCI-H23 lung,> 100 µM
same,TGI,NCI-H522 lung,7.12 µM
same,TGI,NCI/ADR-RES ovarian,> 100 µM
same,TGI,OVCAR-3 ovarian,> 100 µM
same,TGI,OVCAR-4 ovarian,> 100 µM
same,TGI,OVCAR-5 ovarian,> 100 µM
same,TGI,OVCAR-8 ovarian,> 100 µM
same,TGI,PC-3 prostate,> 100 µM
same,TGI,RPMI-8226 leukemia,> 100 µM
same,TGI,SF-268 CNS,39.7 µM
same,TGI,SF-295 CNS,> 100 µM
same,TGI,SF-539 CNS,> 100 µM
same,TGI,SK-MEL-2 melanoma,> 100 µM
same,TGI,SK-MEL-28 melanoma,> 100 µM
same,TGI,SK-MEL-5 melanoma,> 100 µM
same,TGI,SK-OV-3 ovarian,> 100 µM
same,TGI,SN12C renal,> 100 µM
same,TGI,SNB-19 CNS,> 100 µM
same,TGI,SR leukemia,> 100 µM
same,TGI,SW-620 colon,> 100 µM
same,TGI,T-47D breast,> 100 µM
same,TGI,TK-10 renal,> 100 µM
same,TGI,U251 CNS,> 100 µM
same,TGI,UACC-257 melanoma,> 100 µM
same,TGI,UACC-62 melanoma,> 100 µM
same,TGI,UO-31 renal,> 100 µM
OC(CC(O)(C(F)(F)F)C(F)(F)F)c1ccc(C(O)CC(O)(C(F)(F)F)C(F)(F)F)cc1 (stereo unspecified),TGI,786-0 renal,34.9 µM
same,TGI,A498 renal,25.1 µM
same,TGI,A549 NSCLC,28.6 µM
same,TGI,ACHN renal,27.6 µM
same,TGI,CAKI-1 renal,27.3 µM
same,TGI,CCRF-CEM leukemia,36.9 µM
same,TGI,DU-145 prostate,28.3 µM
same,TGI,EKVX NSCLC,28 µM
same,TGI,HCC-2998 colon,33.3 µM
same,TGI,HCT-116 colon,24 µM
same,TGI,HCT-15 colon,42.8 µM
same,TGI,HL-60(TB) leukemia,37.4 µM
same,TGI,HOP-62 NSCLC,35 µM
same,TGI,HOP-92 NSCLC,25.9 µM
same,TGI,HS 578T breast,47.7 µM
same,TGI,HT29 colon,25.1 µM
same,TGI,IGROV1 ovarian,23.3 µM
same,TGI,K-562 leukemia,60.7 µM
same,TGI,LOX IMVI melanoma,30.7 µM
same,TGI,M14 melanoma,29.9 µM
same,TGI,MALME-3M melanoma,27.6 µM
same,TGI,MDA-MB-231 breast,28.7 µM
same,TGI,MDA-MB-435,32.7 µM
same,TGI,MDA-N,35.4 µM
same,TGI,MOLT-4 leukemia,35.8 µM
same,TGI,NCI-H23 lung,26.7 µM
same,TGI,NCI-H460 lung,31.6 µM
same,TGI,NCI-H522 lung,40.5 µM
same,TGI,NCI/ADR-RES ovarian,29.6 µM
same,TGI,OVCAR-3 ovarian,18.2 µM
same,TGI,OVCAR-4 ovarian,29.8 µM
same,TGI,OVCAR-5 ovarian,31.1 µM
same,TGI,OVCAR-8 ovarian,29.5 µM
same,TGI,PC-3 prostate,32.5 µM
same,TGI,RPMI-8226 leukemia,48.8 µM
same,TGI,RXF 393 renal,30.7 µM
same,TGI,SF-268 CNS,28.9 µM
same,TGI,SF-295 CNS,32.5 µM
same,TGI,SF-539 CNS,29.4 µM
same,TGI,SK-MEL-2 melanoma,38.4 µM
same,TGI,SK-MEL-28 melanoma,30.6 µM
same,TGI,SK-MEL-5 melanoma,27.3 µM
same,TGI,SK-OV-3 ovarian,31.9 µM
same,TGI,SNB-19 CNS,30.9 µM
same,TGI,SNB-75 CNS,31.8 µM
same,TGI,SR leukemia,40.2 µM
same,TGI,SW-620 colon,35.8 µM
same,TGI,T-47D breast,31.3 µM
same,TGI,U251 CNS,31.1 µM
same,TGI,UACC-257 melanoma,32.2 µM
same,TGI,UACC-62 melanoma,25.2 µM
same,TGI,UO-31 renal,23 µM
C=CC(C)(C)C(=C)C(=O)Nc1ccccc1I,TGI,786-0 renal,> 100 µM
same,TGI,A498 renal,> 100 µM
same,TGI,A549 NSCLC,> 100 µM
same,TGI,ACHN renal,> 100 µM
same,TGI,CAKI-1 renal,> 100 µM
same,TGI,CCRF-CEM leukemia,> 100 µM
same,TGI,COLO 205 colon,> 100 µM
same,TGI,DU-145 prostate,> 100 µM
same,TGI,EKVX NSCLC,> 100 µM
same,TGI,HCC-2998 colon,> 100 µM
same,TGI,HCT-116 colon,> 100 µM
same,TGI,HCT-15 colon,> 100 µM
same,TGI,HOP-62 NSCLC,> 100 µM
same,TGI,HOP-92 NSCLC,> 100 µM
same,TGI,HS 578T breast,> 100 µM
same,TGI,HT29 colon,> 100 µM
same,TGI,K-562 leukemia,> 100 µM
same,TGI,KM12 colon,> 100 µM
same,TGI,LOX IMVI melanoma,> 100 µM
same,TGI,M14 melanoma,> 100 µM
same,TGI,MCF7 breast,> 100 µM
same,TGI,MDA-MB-231 breast,> 100 µM
same,TGI,MDA-MB-435,> 100 µM
same,TGI,MDA-N,> 100 µM
same,TGI,NCI-H226 lung,> 100 µM
same,TGI,NCI-H23 lung,> 100 µM
same,TGI,NCI-H460 lung,> 100 µM
same,TGI,NCI/ADR-RES ovarian,> 100 µM
same,TGI,OVCAR-3 ovarian,> 100 µM
same,TGI,OVCAR-4 ovarian,> 100 µM
same,TGI,OVCAR-5 ovarian,> 100 µM
same,TGI,OVCAR-8 ovarian,> 100 µM
same,TGI,PC-3 prostate,> 100 µM
same,TGI,RPMI-8226 leukemia,> 100 µM
same,TGI,RXF 393 renal,> 100 µM
same,TGI,SF-268 CNS,> 100 µM
same,TGI,SF-295 CNS,> 100 µM
same,TGI,SK-MEL-2 melanoma,> 100 µM
same,TGI,SK-MEL-28 melanoma,> 100 µM
same,TGI,SK-MEL-5 melanoma,> 100 µM
same,TGI,SK-OV-3 ovarian,> 100 µM
same,TGI,SN12C renal,> 100 µM
same,TGI,SNB-19 CNS,> 100 µM
same,TGI,SNB-75 CNS,> 100 µM
same,TGI,SR leukemia,> 100 µM
same,TGI,SW-620 colon,> 100 µM
same,TGI,T-47D breast,> 100 µM
same,TGI,U251 CNS,> 100 µM
same,TGI,UACC-257 melanoma,> 100 µM
same,TGI,UACC-62 melanoma,> 100 µM
same,TGI,UO-31 renal,> 100 µM
O=c1[nH]c(=S)c2cc3c(=S)[nH]c(=O)n(CCO)c3nc2n1CCO,TGI,786-0 renal,> 100 µM
same,TGI,A498 renal,> 100 µM
same,TGI,A549 NSCLC,> 100 µM
same,TGI,ACHN renal,> 100 µM
same,TGI,BT-549 breast,> 100 µM
same,TGI,CAKI-1 renal,> 100 µM
same,TGI,CCRF-CEM leukemia,> 100 µM
same,TGI,COLO 205 colon,> 100 µM
same,TGI,EKVX NSCLC,> 100 µM
same,TGI,HCC-2998 colon,> 100 µM
same,TGI,HCT-116 colon,> 100 µM
same,TGI,HCT-15 colon,> 100 µM
same,TGI,HOP-62 NSCLC,> 100 µM
same,TGI,HOP-92 NSCLC,> 100 µM
same,TGI,IGROV1 ovarian,> 100 µM
same,TGI,K-562 leukemia,> 100 µM
same,TGI,KM12 colon,> 100 µM
same,TGI,LOX IMVI melanoma,> 100 µM
same,TGI,M14 melanoma,> 100 µM
same,TGI,MALME-3M melanoma,> 100 µM
same,TGI,MCF7 breast,> 100 µM
same,TGI,MDA-MB-231 breast,> 100 µM
same,TGI,MDA-MB-435,> 100 µM
same,TGI,MDA-N,> 100 µM
same,TGI,MOLT-4 leukemia,> 100 µM
same,TGI,NCI-H226 lung,> 100 µM
same,TGI,NCI-H23 lung,> 100 µM
same,TGI,NCI-H460 lung,> 100 µM
same,TGI,NCI-H522 lung,> 100 µM
same,TGI,NCI/ADR-RES ovarian,> 100 µM
same,TGI,OVCAR-3 ovarian,> 100 µM
same,TGI,OVCAR-4 ovarian,> 100 µM
same,TGI,OVCAR-5 ovarian,> 100 µM
same,TGI,OVCAR-8 ovarian,> 100 µM
same,TGI,PC-3 prostate,> 100 µM
same,TGI,RPMI-8226 leukemia,> 100 µM
same,TGI,RXF 393 renal,> 100 µM
same,TGI,SF-268 CNS,> 100 µM
same,TGI,SF-295 CNS,> 100 µM
same,TGI,SF-539 CNS,> 100 µM
same,TGI,SK-MEL-2 melanoma,> 100 µM
same,TGI,SK-MEL-28 melanoma,> 100 µM
same,TGI,SK-MEL-5 melanoma,> 100 µM
same,TGI,SK-OV-3 ovarian,> 100 µM
same,TGI,SN12C renal,> 100 µM
same,TGI,SNB-19 CNS,> 100 µM
same,TGI,SNB-75 CNS,> 100 µM
same,TGI,SR leukemia,> 100 µM
same,TGI,SW-620 colon,> 100 µM
same,TGI,T-47D breast,> 100 µM
same,TGI,TK-10 renal,> 100 µM
same,TGI,U251 CNS,> 100 µM
same,TGI,UACC-257 melanoma,> 100 µM
same,TGI,UO-31 renal,> 100 µM
